Assay results reported in patent US9034576B2, “Systems and methods for measuring translation of target proteins in cells” (ANIMA CELL METROLOGY INC., priority 2009, dated 2015).

Key:
[1] = test system: premature termination codons (PTC); settings: genetic disorders with premature termination codons; Welch E M et al, Nature 2007; cited from earlier work
[2] = test system: CHO cells; experiment: Live cell tRNA:tRNA FRET imaging before and after cycloheximide treatment; format: cell-based; settings: CHO cells transfected with rhodamine 110 (donor) and Cy3 (acceptor) labeled bulk yeast tRNA; same cells imaged prior to and following treatment
Procedure: (§1) Fluorescent labeled tRNA were then introduced into live HEK-293, HeLa and CHO cells, employing a transfection protocol. One day prior to the transfection experiment, the cells were seeded on fibronectin-coated glass slides in a 24-well plate. On the following day, the growth medium was removed and 0.5 ml of fresh medium was added to each well containing the sub-confluent monolayers. 10 minutes later, 0.1 ml of the labeled-tRNA mixed with the transfection reagent and serum-free media were added to each well. The plate was incubated at 37° C. in a 5% CO2 incubator for 6-8 hr, followed by fixation with 4% paraformaldehyde for 20 min and mounting using fluorescent mounting medium. The fixed cells on glass slides were then visualized employing a spinning disk confocal microscope.
(§2) In order to determine the imaging parameters to be employed in the following experiments, including the degree of non-specific signal stemming from the cross-stimulation of different fluorophores, cells were transfected with donor only and with acceptor only, and imaged in the exact conditions employed for the FRET measurement. The calibration coefficients for computing the NFret (corrected FRET) image were NFret=FRET−0.011*donor−0.004*acceptor. […]

[3] = test system: HEK cells; experiment: as above; format: cell-based; settings: HEK cells transfected with rhodamine 110 (donor) and Cy3 (acceptor) labeled bulk yeast tRNA; same cells imaged prior to and following treatment
Procedure: as §1, §2

Row | SMILES | amount of required protein produced [1] | FRET signal intensity [2] | FRET signal intensity [3]
1 | O=C(O)c1cccc(-c2noc(-c3ccccc3F)n2)c1 [PTC124] | 1-5 % of normal concentrations |  | 
2 | C[C@@H]1C[C@@H]([C@H](O)CC2CC(=O)NC(=O)C2)C(=O)[C@@H](C)C1 [cycloheximide] |  | increase in FRET signal intensity | increase in FRET signal intensity
